We go through seven compounds from patent publication US20140135310A1, “SULPHONAMIDE DERIVATIVES OF ALICYCLIC AMINES FOR THE TREATMENT OF CENTRAL NERVOUS SYSTEM DISEASES” (Adamed Sp. z o.o., priority 2011, published 2014).

Assay [1] concerns the target dopaminergic receptors D3 (Homo sapiens, UniProt P35462). In words: Radioligand binding assay, dopaminergic D3 receptors. As to conditions: test compound 1×10^−6 M. The procedure, abridged:
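Scintillation read-out. Specific = total − nonspecific (excess cold ligand). Data as % of control specific binding / % inhibition; IC50 by Hill fit; Ki = IC50/(1+L/KD), KD from Scatchard plot.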

The target of assay [2] is T1, H1 histaminergic receptors (Homo sapiens, UniProt P35367).
T1 construct: expressed in transfected cells; host or cells: HEK-293 cells
In words: Radioligand binding assay, histaminergic H1 receptors. The settings on record: human recombinant (HEK-293 cells), [3H]pyrilamine 1 nM. The procedure, abridged: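 Competition binding at human H1 receptors; specific binding taken as total minus non-specific binding in excess unlabelled ligand, scintillation read-out. IC50 from Hill-equation fit of competition curves; Ki by Cheng-Prusoff using radioligand concentration and Kd (from Scatchard plot).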

In a further assay the target is T2, α2C adrenergic receptors (Homo sapiens, UniProt P18825).
T2 construct: expressed in transfected cells; host or cells: CHO cells
T2 sequence (P18825 1-462): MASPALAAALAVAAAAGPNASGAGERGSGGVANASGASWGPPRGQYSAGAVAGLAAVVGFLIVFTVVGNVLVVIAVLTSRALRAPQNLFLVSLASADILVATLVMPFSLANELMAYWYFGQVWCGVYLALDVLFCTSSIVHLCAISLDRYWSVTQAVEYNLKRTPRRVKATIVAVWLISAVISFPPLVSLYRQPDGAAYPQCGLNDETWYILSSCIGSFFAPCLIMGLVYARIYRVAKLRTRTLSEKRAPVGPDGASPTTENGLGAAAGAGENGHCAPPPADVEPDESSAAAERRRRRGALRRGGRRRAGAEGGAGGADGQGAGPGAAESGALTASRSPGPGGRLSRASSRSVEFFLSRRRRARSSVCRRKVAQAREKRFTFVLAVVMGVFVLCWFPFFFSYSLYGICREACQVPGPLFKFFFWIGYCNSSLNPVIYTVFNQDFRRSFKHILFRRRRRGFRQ
In words: Radioligand binding assay, adrenergic α2C receptors. The settings on record: test compound 1×10^−6 M. The procedure, abridged: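 Competitive radioligand binding at human α2C receptors, with scintillation counting. Nonspecific binding defined with excess unlabelled ligand; results given as % inhibition of control specific binding. IC50 from Hill-equation fits of competition curves; Ki via Cheng-Prusoff using radioligand concentration and Scatchard-derived KD.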

The target of the next assay is T3, 5-HT2A receptor (Homo sapiens, UniProt P28223).
T3 construct: purchased PerkinElmer
In words: Radioligand binding assay, serotoninergic 5-HT2A receptors. As to conditions: binding assay result in %, Table 5a. In short, it runs like this: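 Competition curves from scintillation-counted specific binding (total minus binding with excess unlabelled ligand) were Hill-fitted to give IC50, converted to Ki via Cheng-Prusoff using Scatchard-derived Kd.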

Assay [3] concerns the target T4, 5-HT1A receptor (rat hippocampus) (Rattus norvegicus, UniProt P19327).
T4 construct: hippocampus; from tissue; host or cells: rat hippocampus
T4 sequence (P19327 1-422): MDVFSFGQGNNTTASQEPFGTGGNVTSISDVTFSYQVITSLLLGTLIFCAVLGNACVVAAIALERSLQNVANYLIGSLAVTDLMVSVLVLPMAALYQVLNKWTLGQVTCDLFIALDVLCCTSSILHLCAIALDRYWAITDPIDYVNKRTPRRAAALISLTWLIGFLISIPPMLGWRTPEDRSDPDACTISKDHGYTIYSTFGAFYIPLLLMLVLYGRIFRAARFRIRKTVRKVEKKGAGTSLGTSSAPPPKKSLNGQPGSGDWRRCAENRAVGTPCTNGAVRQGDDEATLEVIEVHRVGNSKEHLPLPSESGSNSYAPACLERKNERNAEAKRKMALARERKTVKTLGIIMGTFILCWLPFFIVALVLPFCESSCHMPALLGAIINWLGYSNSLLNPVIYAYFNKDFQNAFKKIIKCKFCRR
In words: Radioligand binding assay, serotoninergic 5-HT1A receptors.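 Also: test compound at 1 µM.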 The settings on record: binding assay result in %, Table 5a.

Another assay addresses T5, 5-HT7 receptor (Homo sapiens, UniProt P34969).
T5 construct: purchased PerkinElmer
In words: Radioligand binding assay, serotoninergic 5-HT7 receptors.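 Also: test compound at 1 µM.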 As to conditions: binding assay result in %, Table 5a. The procedure, abridged: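 Ki values used the Cheng–Prusoff equation, with KD from Scatchard analysis, applied to IC50 from Hill fits of human 5-HT7 radioligand competition curves. Bound radioligand was counted by scintillation, and excess unlabelled ligand set the non-specific binding.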

The next assay concerns σ receptors. In words: Radioligand binding assay, σ receptors. The settings on record: rat cerebral cortex, [3H]DTG 8 nM. The procedure, abridged: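 Values derive from radioligand displacement, with non-specific binding defined by excess cold ligand and detection by scintillation. Hill-fit IC50s were converted to Ki via Cheng-Prusoff using Scatchard-derived Kd; percent inhibition of control specific binding also reported.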

Each structure is given as a SMILES string.

T5 sequence (P34969 whole entry): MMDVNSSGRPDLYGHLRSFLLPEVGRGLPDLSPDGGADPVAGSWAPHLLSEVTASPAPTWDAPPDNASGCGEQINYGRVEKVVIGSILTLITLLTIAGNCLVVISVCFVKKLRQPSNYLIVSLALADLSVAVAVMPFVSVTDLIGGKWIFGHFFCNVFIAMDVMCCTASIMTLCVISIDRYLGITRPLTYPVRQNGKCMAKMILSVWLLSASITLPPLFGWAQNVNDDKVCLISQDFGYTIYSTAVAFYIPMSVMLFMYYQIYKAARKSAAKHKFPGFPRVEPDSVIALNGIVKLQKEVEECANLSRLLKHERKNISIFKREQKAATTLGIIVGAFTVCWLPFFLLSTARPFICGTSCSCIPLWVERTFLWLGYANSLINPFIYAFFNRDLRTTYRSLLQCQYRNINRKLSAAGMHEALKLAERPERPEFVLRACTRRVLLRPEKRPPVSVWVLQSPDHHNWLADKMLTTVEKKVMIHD
T1 sequence (P35367 whole entry): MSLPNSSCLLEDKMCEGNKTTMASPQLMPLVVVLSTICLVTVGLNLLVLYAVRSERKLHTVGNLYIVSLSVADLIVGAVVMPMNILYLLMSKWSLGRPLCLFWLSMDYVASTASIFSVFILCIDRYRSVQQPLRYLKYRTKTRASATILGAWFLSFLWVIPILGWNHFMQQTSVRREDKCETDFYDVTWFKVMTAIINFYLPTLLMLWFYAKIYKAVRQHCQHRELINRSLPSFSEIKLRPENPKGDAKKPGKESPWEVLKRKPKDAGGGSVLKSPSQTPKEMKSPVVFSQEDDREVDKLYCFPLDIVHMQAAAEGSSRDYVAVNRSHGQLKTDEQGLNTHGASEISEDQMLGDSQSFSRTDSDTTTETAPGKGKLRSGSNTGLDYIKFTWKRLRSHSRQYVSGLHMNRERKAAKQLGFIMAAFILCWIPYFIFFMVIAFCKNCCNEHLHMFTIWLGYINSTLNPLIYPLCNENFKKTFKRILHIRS
Chain of dopaminergic receptors D3 (P35462 whole entry): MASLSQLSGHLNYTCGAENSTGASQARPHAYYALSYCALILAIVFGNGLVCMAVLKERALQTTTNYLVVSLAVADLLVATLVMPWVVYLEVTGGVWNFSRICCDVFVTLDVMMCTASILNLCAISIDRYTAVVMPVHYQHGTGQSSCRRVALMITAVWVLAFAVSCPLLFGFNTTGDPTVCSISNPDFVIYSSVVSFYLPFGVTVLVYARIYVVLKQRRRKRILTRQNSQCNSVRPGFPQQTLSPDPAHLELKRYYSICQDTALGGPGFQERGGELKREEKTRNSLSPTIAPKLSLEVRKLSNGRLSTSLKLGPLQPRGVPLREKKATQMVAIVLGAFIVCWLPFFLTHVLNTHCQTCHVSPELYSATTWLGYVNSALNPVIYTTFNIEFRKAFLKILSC
T3 sequence (P28223 whole entry): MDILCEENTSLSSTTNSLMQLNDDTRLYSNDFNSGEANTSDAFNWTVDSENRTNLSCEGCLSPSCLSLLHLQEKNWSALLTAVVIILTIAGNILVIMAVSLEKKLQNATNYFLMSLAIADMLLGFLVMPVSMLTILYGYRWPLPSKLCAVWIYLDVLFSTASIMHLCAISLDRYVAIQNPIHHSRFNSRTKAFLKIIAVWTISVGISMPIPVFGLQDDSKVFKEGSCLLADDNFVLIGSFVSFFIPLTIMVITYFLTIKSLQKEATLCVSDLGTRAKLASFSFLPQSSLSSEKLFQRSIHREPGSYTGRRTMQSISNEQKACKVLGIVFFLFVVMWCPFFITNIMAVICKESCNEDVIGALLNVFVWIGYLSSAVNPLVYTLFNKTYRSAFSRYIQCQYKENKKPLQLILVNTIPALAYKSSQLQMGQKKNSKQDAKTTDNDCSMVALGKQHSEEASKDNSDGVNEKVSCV

One may read the inhibition as the drop in the measured response relative to a control, in per cent. For `Cc1cc(S(=O)(=O)N[C@H]2CCN(CCCc3noc4cc(F)ccc34)C2)c(C)s1` [Compound 223, N-[(3S)-1-[3-(6-Fluoro-1,2-benzoxazol-3-yl)propyl]pyrrolidin-3-yl]-2,5-dimethyl-thiophene-3-sulphonamide], the inhibition at 1 µM worked out at 57% in assay [1]; 52% in assay [2]; 60% on α2C adrenergic receptors; 99% on 5-HT2A receptor; 49% in assay [3]; 100% on 5-HT7 receptor. The “σ [%]” value in the assay on σ receptors was 89%.
`O=S(=O)(NC1CN(CCOc2cccc3[nH]ccc23)C1)c1cccc(Cl)c1` [Compound 47, 3-Chloro-N-[1-[2-(1H-indol-4-yloxy)ethyl]azetidin-3-yl]benzene-sulphonamide]: the inhibition at 1 µM in assay [1] is 97%; in assay [2], -3%; at α2C adrenergic receptors, 80%; at 5-HT2A receptor, 80%; in assay [3], 98%; at 5-HT7 receptor, 100%. Also, the “σ [%]” value in the assay on σ receptors is 44%.
`O=S(=O)(NC1CN(CCOc2cccc3[nH]ccc23)C1)c1ccc2ccccc2c1` [Compound 50, N-[1-[2-(1H-Indol-4-yloxy)ethyl]azetidin-3-yl]naphthalene-2-sulphonamide]: the inhibition at 1 µM in assay [1] is 104%; in assay [2], 34%; on α2C adrenergic receptors, 108%; on 5-HT2A receptor it was 97%; in assay [3] it was 101%; on 5-HT7 receptor it was 99%. Further, the “σ [%]” value in the assay on σ receptors is listed as 59%.
On to `Cc1cccc(S(=O)(=O)NC2CN(CCOc3cccc4[nH]ccc34)C2)c1` [Compound 48, N-[1-[2-(1H-Indol-4-yloxy)ethyl]azetidin-3-yl]-3-methyl-benzenesulphonamide], for which the inhibition at 1 µM came out at 104% in assay [1]; 21% in assay [2]; 105% at α2C adrenergic receptors; 88% at 5-HT2A receptor; 100% in assay [3]; 98% at 5-HT7 receptor. Besides, the “σ [%]” value with σ receptors is on record as 18%.
Consider `CC1(C)Cc2cccc(OCCN3CCC(NS(=O)(=O)c4cccc(O)c4)CC3)c2O1` [Compound 109, N-[1-[2-[(2,2-Dimethyl-3H-benzofuran-7-yl)oxy]ethyl]-4-piperidine]-3-hydroxy-benzenesulphonamide], for which, in assay [1], the “D3 [%]” value is listed as 86%. Besides, the “H1 [%]” value in assay [2] was found to be 65%. For the same compound, the “α2C [%]” value on α2C adrenergic receptors is on record as 98%. Also, the “5-HT2A [%]” value on 5-HT2A receptor is 95%. The “5-HT1A [%]” value in assay [3] is reported as 96%. Moreover, on 5-HT7 receptor, the “5-HT7 [%]” value is on record as 99%. Further, the “σ [%]” value in the assay on σ receptors was found to be 39%.
For the compound `O=S(=O)(NC1CCN(CCOc2cccc3[nH]ccc23)CC1)c1ccccc1` [Compound 55, N-[1-[2-(1H-Indol-4-yloxy)ethyl]-4-piperidine]benzenesulphonamide], the “D3 [%]” value in assay [1] is on record as 93%. Besides, the “H1 [%]” value in assay [2] is 0%. At α2C adrenergic receptors, the “α2C [%]” value is 99%. In addition, on 5-HT2A receptor, the “5-HT2A [%]” value came to 94%. For the same compound, in assay [3], the “5-HT1A [%]” value was found to be 96%. The “5-HT7 [%]” value on 5-HT7 receptor is given as 96%. Besides, the “σ [%]” value with σ receptors came to 37%.
As to `O=S(=O)(NC1CCN(CCCc2c[nH]c3ccc(F)cc23)C1)c1cccc2ccccc12` (stereo not shown) [Compound 79, N-[1-[3-(5-Fluoro-1H-indol-3-yl)propyl]pyrrolidin-3-yl]naphthalene-1-sulphonamide], the inhibition at 1 µM in assay [1] is 97%; in assay [2], 72%; at α2C adrenergic receptors, 96%; at 5-HT2A receptor, 99%; in assay [3], 99%; on 5-HT7 receptor, 96%. Besides, the “σ [%]” value in the assay with σ receptors was 67%.
